Consider four molecules from article PMC4245125, “Pharmacological and Behavioral Characterization of D-473, an Orally Active Triple Reuptake Inhibitor Targeting Dopamine, Serotonin and Norepinephrine Transporters” (PLoS ONE, 2014).

A short description of series [1]: Plasma concentration after oral administration in rats. It counts as in vivo. Particulars: rat, male Sprague-Dawley rats, 25 mg/kg PO. The procedure: Sample preparation: Following oral administration of 25 mg/kg of D-473 and D-142 in male Sprague Dawley rats, the blood samples were collected at different time points over a period of 8 h for analysis. Concentrations of D-473 and D-142 in plasma were quantitated using a set of calibration standards prepared in blank matrix that were processed in parallel. Plasma concentration evaluation was carried out by the CRO, Absorption System, PA. Additionally, brain uptake studies of D-473 were carried out at three different time points (2, 4 and 6 h) following oral administration of 25 mg/kg D-473. Concentrations of D-473 in rat brain were quantitated using a set of calibration standards which were prepared in blank brain homogenate matrix on the day of analysis. The standard samples (5, 10, 25, 100, 500, 1000, and 2000 ng/mL) for calibration curve were prepared by spiking 45 µL of blank rat plasma with 5 µL of appropriate working dilution of D-473 in acetonitrile. The bioanalytical sample preparation for brain and plasma analysis followed by quantification of test compounds entailed the addition of 250 µL acetonitrile to every 50 µL of standard and analyte samples to precipitate tissue plasma proteins and tissue macromolecules. These mixtures were then vortexed for 15 min at 1400 rpm. The suspensions were then clarified by centrifugation (18000 g, 10 min at 4°C), and each 150 µL of the resulting supernatant was mixed well with 50 µL 0.1% formic acid in 50/50 (v/v) ACN/water solution for about 10 sec. The mixtures were again centrifuged (18000 g, 10 min at 4°C) before 100 µL of clear supernatant were transferred to auto sampler vials for LC-MS/MS analysis.
The analysis of blood sample was carried out by the CRO Absorption system, PA. Briefly, the analysis was carried out by Waters Acquity UPLC equipped with PE Sciex API4000 mass spectrometer. Reverse phase Waters Acquity BEH Phenyl Column 1.7micron, 2.1×30 mm column was used for analysis. 5 µL of sample solutions were injected with a flow rate 1 mL/min and the samples were eluted with gradient elution using solvent A (10% buffer: 90% water) and solvent B (10% buffer: 90% acetonitrile). Buffer used was 40 mM Ammonium Formate Buffer, pH 3.5. Pharmacokinetic prarameters were estimated by a non-compartmental model using WinNonlin v5.2.1 software.

For series [2] the following is noted: found earlier by the authors; no reference given; cited from earlier work.
For another series, the target named is hDAT (Homo sapiens, UniProt Q01959). Kind of series: Inhibition of [3H]DA uptake by cloned human DAT in HEK293 cells. Conditions: nM, HEK293 cells expressing hDAT, average±S.E.M., 3 to 10 determinations.
Chain of hDAT (Q01959 whole entry): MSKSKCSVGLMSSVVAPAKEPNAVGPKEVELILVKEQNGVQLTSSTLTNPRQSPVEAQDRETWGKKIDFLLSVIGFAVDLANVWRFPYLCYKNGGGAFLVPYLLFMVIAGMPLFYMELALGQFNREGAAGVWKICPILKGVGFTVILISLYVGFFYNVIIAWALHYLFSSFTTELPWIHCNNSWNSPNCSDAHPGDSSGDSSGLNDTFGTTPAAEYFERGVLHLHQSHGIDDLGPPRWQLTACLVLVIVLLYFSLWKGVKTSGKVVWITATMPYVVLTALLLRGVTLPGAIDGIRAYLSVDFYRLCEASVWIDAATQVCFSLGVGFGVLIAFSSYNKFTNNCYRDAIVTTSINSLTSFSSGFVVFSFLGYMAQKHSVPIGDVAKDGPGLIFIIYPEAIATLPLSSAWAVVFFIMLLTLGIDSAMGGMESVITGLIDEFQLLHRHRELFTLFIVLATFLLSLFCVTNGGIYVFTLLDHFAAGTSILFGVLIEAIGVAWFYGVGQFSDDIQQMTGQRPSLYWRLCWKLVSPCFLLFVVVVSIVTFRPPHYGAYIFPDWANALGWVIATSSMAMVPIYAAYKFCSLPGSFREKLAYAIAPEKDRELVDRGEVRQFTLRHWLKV
The target of another series is hNET (Homo sapiens, UniProt P23975). The series can be described thus: Inhibition of [3H]DA uptake by cloned human NET in HEK293 cells. Particulars: NET uptake, Ki, nM [3H]DA, HEK293 cells expressing hNET; average±S.E.M., 3 to 10 determinations.
Chain of hNET (P23975 whole entry): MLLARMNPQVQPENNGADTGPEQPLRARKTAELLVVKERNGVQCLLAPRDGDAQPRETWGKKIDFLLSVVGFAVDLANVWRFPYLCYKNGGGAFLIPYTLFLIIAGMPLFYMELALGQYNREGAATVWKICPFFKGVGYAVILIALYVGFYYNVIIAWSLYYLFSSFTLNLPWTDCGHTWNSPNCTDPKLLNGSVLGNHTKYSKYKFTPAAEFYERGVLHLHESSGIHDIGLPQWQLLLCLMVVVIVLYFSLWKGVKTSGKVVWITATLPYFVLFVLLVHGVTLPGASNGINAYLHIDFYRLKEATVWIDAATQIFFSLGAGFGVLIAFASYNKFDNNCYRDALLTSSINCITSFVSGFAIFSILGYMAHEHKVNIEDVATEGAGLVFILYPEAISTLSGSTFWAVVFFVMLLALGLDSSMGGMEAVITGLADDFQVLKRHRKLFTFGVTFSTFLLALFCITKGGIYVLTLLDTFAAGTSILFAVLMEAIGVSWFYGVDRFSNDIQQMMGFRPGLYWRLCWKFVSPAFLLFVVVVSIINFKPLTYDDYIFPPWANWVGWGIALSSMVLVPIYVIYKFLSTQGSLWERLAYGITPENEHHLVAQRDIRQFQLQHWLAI
The target in another series is hSERT (Homo sapiens, UniProt P31645). The series can be described thus: Inhibition of [3H]5-HT uptake by cloned human SERT in HEK293 cells.
Chain of hSERT (P31645 whole entry): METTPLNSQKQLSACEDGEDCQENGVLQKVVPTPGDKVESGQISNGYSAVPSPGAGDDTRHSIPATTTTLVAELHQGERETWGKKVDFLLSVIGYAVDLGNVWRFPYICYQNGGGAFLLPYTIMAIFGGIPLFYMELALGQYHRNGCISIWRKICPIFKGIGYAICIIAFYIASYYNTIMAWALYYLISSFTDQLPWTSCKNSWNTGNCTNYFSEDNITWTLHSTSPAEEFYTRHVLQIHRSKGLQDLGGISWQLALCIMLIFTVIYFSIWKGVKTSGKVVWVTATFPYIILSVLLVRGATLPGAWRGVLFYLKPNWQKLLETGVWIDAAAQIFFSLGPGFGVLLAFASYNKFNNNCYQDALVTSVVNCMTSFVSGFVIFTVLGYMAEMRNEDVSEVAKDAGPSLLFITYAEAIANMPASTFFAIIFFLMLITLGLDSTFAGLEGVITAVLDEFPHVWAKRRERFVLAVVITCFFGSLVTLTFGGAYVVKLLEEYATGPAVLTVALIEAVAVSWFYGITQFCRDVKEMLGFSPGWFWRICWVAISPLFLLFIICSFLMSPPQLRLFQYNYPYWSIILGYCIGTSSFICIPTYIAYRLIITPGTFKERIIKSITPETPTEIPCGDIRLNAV
The test system of series [3] is locomotor activity (horizontal activity). The series can be described thus: Locomotor activity in rats. It counts as in vivo. Conditions: rat; 5 mg/kg i.p.; vs vehicle (P<0.001). The procedure:
Sprague Dawley Rats were tested at 25 mg/kg oral dose of D-473 to monitor changes in any locomotor activity in acrylic Auto-Track/Opto-Varimex-4 System (Columbus Instrument; Columbus, Ohio). The purpose was to evaluate locomotor activity of the same doses of drug that were used in the forced swim test. Rats were acclimated in the test chambers for 1 h prior to oral administration of D-473. Locomotor activity of the drug was measured for a total of two hour post administration of the drug which corresponded to the time of measurement in the forced swimming experiment. GBR 12909 was studied as a control drug known to stimulate and was administered i.p. as in published studies; vehicle was orally administered.

A further series deals with dialysate DOPAC. On the set-up: method as in PMID 2477259. Particulars: DAT releaser; cited from earlier work.

Counter-ions that a name gives are not always drawn.

Regarding `COc1ccc(CN[C@@H]2CO[C@H](C(c3ccc(F)cc3)c3ccc(F)cc3)C[C@H]2O)cc1` (as salt: hydrochloride) [Compound D-473, (2S,4R,5R)-2-(bis(4-fluorophenyl)methyl)-5-((4-methoxybenzyl)amino)tetrahydro-2H-pyran-4-ol], the melting point fell in the range of 190 to 205 °C.
Take `COc1ccc(CN[C@@H]2CO[C@H](C(c3ccccc3)c3ccccc3)C[C@H]2O)cc1` [Compound D-142]: the Cmax in series [1] (3% HPßCD in water, read-out: Average maximum plasma concentration, Cmax) worked out at 125 ± 36.6 ng/mL. Moreover, the half-life in series [1] (read-out: Average half-life (converted)) is 2.5 ± 0.96 h. Moreover, in series [2], the Oral bioavailability entry is on record as “poor oral bioavailability”. Further, the Ki was determined as 179 ± 27 nM at hDAT, 21.2 ± 4.3 nM on hNET and 5.43 ± 1.4 nM at hSERT.
As to `Fc1ccc(C(OCCN2CCN(CCCc3ccccc3)CC2)c2ccc(F)cc2)cc1` [GBR 12909, 1-[2-[bis(4-fluorophenyl)methoxy]ethyl]-4-[3-phenylpropyl]piperazine, reference compound], the “Locomotor activity (horizontal activity)” value in series [3] is listed as “significant rise”.
Regarding `CC(N)Cc1ccccc1` (stereo not drawn) [amphetamine], in the series on dialysate DOPAC, the “Reductions in DOPAC” value is approximately 65%.

Usually melting point stands for the temperature of the solid-liquid transition. By half-life is commonly meant the time in which the quantity being followed falls by half. The term Ki denotes a measure of affinity in units of concentration, obtained from inhibition or displacement.
